Tests used:
in vitro = conditions: human
[1] = cited from earlier work

Q: Which results are given for `CC(C)(O)c1ccccc1CC[C@@H](SCC1(CC(=O)O)CC1)c1cccc(/C=C/c2ccc3ccc(Cl)cc3n2)c1` [montelukast]?
A: viability (in vitro): 86 to 90%; Side effects / tolerability ([1]; all doses 10 mg/day to 200 mg/day, ref 23 (Altman et al.)): no significant clinical or laboratory side effects; Toxicity tolerance ([1]; high doses (i.e., 200 mg/day)): toxicity tolerance is high
